Test results from patent US11261210B2, “Glycosylated antitumor ether lipids as novel cancer stem cell cytotoxic agents” (UNIVERSITY OF MANITOBA, priority 2012, dated 2022).

Experiments:
cancer cell lines = conditions: Xu et al., ChemMedChem in press; cited from earlier work
[1] = system: JIMT1 stem cell tumorspheres; assay: Viability of JIMT1 stem cell tumorspheres (MTS assay); type: cell-based, human; conditions: 6 days
Procedure: FIG. 8. Effect of β-O-Gln, α-O-Gln, β-C-Gln and ET-18-OCH3 on the viability of JIMT1 stem cell tumorspheres. BT-474 cancer stem cells were grown for 7 days in ultra low adhesion 6-well plates. The tumorspheres formed were harvested, trypsinised and cell numbers were determined. Equal numbers of cells were dispersed into 48-well non-treated plates in mammocult medium and incubation was under static conditions. Wells with only medium but no cells were treated in an identical manner to serve as blanks. After spheres were formed, O-Gln, C-Gln or ET-18-OCH3 (0, 10, 20, 30 μM) were added and incubation was for a total of 6 days. At the end of the incubation, the MTS reagent was added to each well and the plates were mixed in a nutator in a 5% CO2 incubator for 4 h. The absorbance of each well was read at 470 nm. The results are the means±standard deviation of 4 independent determinations.
(§1) Cell viability assay: Cell viability was determined by the Cell Titre 96 Aqueous One solution proliferation assay ((MTS assay; Promega) according to the instructions of the manufacturer.
The viability of cells in spheroids incubated with 20 or 30 μM ET-18-OCH3 was between 30-40% of controls.

[2] = system: JIMT-1 stem cell spheroids; assay: Morphology of JIMT-1 stem cell spheroids; type: cell-based, human; conditions: 6 days, FIG. 7B
Procedure: FIG. 7. A. Effect of β-O-Gln, β-C-Gln or ET-18-OCH3 on morphology of JIMT-1 stem cell spheroids. B. Effect of β-O-Gln, α-O-Gln or ET-18-OCH3 on morphology of JIMT-1 stem cell spheroids. JIMT-1 cancer stem cells were grown for 7 days in ultra low adhesion 6 well plates. The tumorspheres formed were harvested, trypsinised and cell numbers were determined. Equal numbers of cells were dispersed into 48-well non-treated plates in mammocult medium and incubated in a CO2 incubator under static conditions. After spheres were formed, O-Gln, C-Gln or ET-18-OCH3 were added (0, 10, 20 and 30 μM) and incubation was for a total of 6 days with media supplementation after 3 days. Images for FIG. 7A were taken at day 0 and after 72 h following addition of the compounds. Images for FIG. 7B were taken after 6 days incubation with the compounds.
The above studies were repeated with JIMT-1 spheroids.

cancer stem cells = assay: Tumorsphere formation by freshly sorted cancer stem cells; type: cell-based, human; conditions: added to freshly sorted cancer stem cells, 10 μM and above, 6 days
From the text: Breast cancer stem cell enriched cell population was obtained by staining breast cancer cell lines BT-474 and JIMT-1 for aldehyde dehydrogenase 1 (ALDH1) using the assay kit from Stem Cell Technologies (Vancouver BC, Canada) according to the instructions of the manufacturer with the appropriate controls. BT-474 is a ductal carcinoma cell line (Lasfargues E Y, Coutinho W G, Dion A S (1979) A human breast tumor cell line (BT-474) that supports mouse mammary tumor virus replication. In Vitro 15, 723-729) while JIMT-1 is a carcinoma cell line that is resistant to herceptin (Tanner M, Kapanen A J, Junttila T, Raheem O, Grenman S, Elo J, Elenius K, Isola J (2004). Characterization of a novel cell line established from a patient with herceptin-resistant breast cancer. Mol Cancer Ther 3, 1585-1592). Following the staining, the cells stained for ALDH1 were sorted from the bulk population by flow cytometry on a 4 laser MoFloXPP high speed/pressure cell sorter. The cells were pelleted by centrifugation, resuspended in supplemented Mammocult medium (Stem Cell Technologies) and dispersed into ultra-low adhesive 6-well plates or 35 mm dishes for 7 days to allow the formation of spheroids (mammospheres). After 7 days, the spheres were separated from single cells (dead non-stem cells) by sieving the contents of the well through a […] nylon cell strainer (BD Falcon). The spheres retained in the sieve are washed with Hanks buffer and subsequently trypsinised to obtain a single cell suspension of cancer stem cells. The cell numbers were determined with a Coulter ZM counter and the cells were seeded into the appropriate low adhesion tissue culture ware for various studies.
AEL solutions in ethanol were diluted into supplemented mammocult medium generally at twice the desired final concentration. A volume equal to that in the wells was added to dilute the drug to the desired concentration in each well. Subsequently any further addition of drug to the wells, utilized AEL solution prepared at the desired concentration. […]

BT474 cancer stem cells = assay: Trypan blue dye exclusion viability of BT474 cancer stem cells; type: cell-based, human; conditions: BT474 cancer stem cells incubated with compound
Procedure: Trypan blue dye exclusion assay using the TC10 automated cell counter (BioRad) was also used for some studies.
We investigated the effects of the GAELs and the ALPET-18-OCH3 on the ability of the cancer stem cells to form tumorspheres. […] This was a concentration dependent event and at concentrations greater than 10 μM spheroid formation was completely disrupted.

[3] = system: BT-474 stem cell tumorspheres; assay: Viability of BT-474 stem cell tumorspheres (MTS assay); type: cell-based, human; conditions: for loss of viability / Viability (% 0f control) / toxicity against the cancer stem cells: 6 days; for Viability (% 0f control): Table 2; for toxicity against the cancer stem cells: BT-474 spheroids
Procedure: FIG. 6. Effect of β-O-Gln, α-O-Gln, β-C-Gln and ET-18-OCH3 on the viability of BT-474 stem cell tumorspheres. BT-474 cancer stem cells were grown for 7 days in ultra low adhesion 6 well plates. The tumorspheres formed were harvested, trypsinised and cell numbers were determined. Equal numbers of cells were dispersed into 48-well plates in mammocult medium and incubation was under static conditions. Wells with only medium but no cells were treated in an identical manner to serve as blanks. After spheres were formed, β-O-Gln, α-O-Gln, β-C-Gln or ET-18-OCH3 (0, 10, 20, 30 μM) were added and incubation was for a total of 6 days. At the end of the incubation, the MTS reagent was added to each well and the plates were rotated on a Nutator mixer in a 5% CO2 incubator for 4 h. The absorbance of each well was read at 470 nm. The results are the means±standard deviation of 4 independent determinations.
as §1
The viability of the material at the end of the incubation was determined using the MTS assay. […] In cells incubated with 10 μM of β-C-Gln, 90% of the cells were not viable. […] In contrast, in experiments with ET-18-OCH3, 10 or 20 μM ET-18-OCH3 had little effect on the viability of BT-474 spheroids and at a concentration of 30 μM viability was around 45% relative to controls. The results of the integrity studies correlate well with the viability studies.
We also investigated the effect of α-O-Galn, β-O-Galn or α-O-Mann on the viability of BT-474 spheroids. The spheroids were incubated with the compounds for 6 days and the viability was assessed by the MTS assay. […] Viability was down to around 10% at 10 μM concentration of the compound. […] At a concentration of 30 μM a significant proportion (26-32%) of the BT-474 cancer stem cells were still viable. The cytotoxic efficacy of GAELs is dependent on the type of sugar moiety and the anomeric form in some instances.

BT-474 cancer stem cells = assay: BT-474 cancer stem cell spheroid formation; type: cell-based, human; conditions: BT474 cancer stem cells, FIG. 1B
Procedure: FIG. 1. A. Effect of β-C-Gln (β-AC1) on BT-474 cancer stem cell spheroid formation. BT-474 cancer stem cells were obtained by staining BT474 cells for ALDH1 and sorting the stained from unstained cells by flow cytometry. The ALDH1 stained cells were grown in ultra-low adhesion 6-well plates in mammocult medium for 7 days. The spheroids were isolated and trypsinised to generate single cells. The cells were then seeded for 2 days in ultra-low adhesion 6-well plates, and subsequently incubated in the absence or presence of C-Gln for up to 12 days. The media was replenished after 6 days. B. Effect of β-O-Gln (β-AO1), α-O-Gln (α-AO1), or ET-18-OCH3 on BT-474 cancer stem cell spheroid formation.
Breast cancer stem cell enriched cell population was obtained by staining breast cancer cell lines BT-474 and JIMT-1 for aldehyde dehydrogenase 1 (ALDH1) using the assay kit from Stem Cell Technologies (Vancouver BC, Canada) according to the instructions of the manufacturer with the appropriate controls. […] The cell numbers were determined with a Coulter ZM counter and the cells were seeded into the appropriate low adhesion tissue culture ware for various studies. […]

[4] = Generation of large acidic vacuoles; type: cell-based
From the text: Autophagy 5, 835-84663). Furthermore an active endocytosis pathway was essential for GAEL activity (Samadder P, Byun H-S, Bittman R, Arthur G (2011) The endocytosis pathway is required for the cytotoxic effects of glycosylated antitumor ether lipids, Anticancer Res 31, 3809-3818). The generation of the large acidic vacuoles is a hallmark of this non-apoptosis death pathway induced by GAELs.

For CCCCCCCCCCCCCCCCOC[C@H](CS[C@@H]1O[C@H](CO)[C@@H](O)[C@H](O)[C@H]1N)OC [β-AS1, 1-O-Hexadecyl-2-O-methyl-3-S-(2′-amino-2′-deoxy-β-D-glucopyranosyl)-sn-glycerol], the “cytotoxicity compared to β-O-Gln (β-AO1)” value (cancer cell lines) is listed as “not as active as β-O-Gln”.

In the case of CCCCCCCCCCCCCCCCOC[C@H](CS[C@H]1O[C@H](CO)[C@@H](O)[C@H](O)[C@H]1N)OC [α-AS2, 1-O-Hexadecyl-2-O-methyl-3-S-(2′-amino-2′-deoxy-α-D-glucopyranosyl)-sn-glycerol], the “cytotoxicity compared to β-O-Gln (β-AO1)” value (cancer cell lines) is given as “not as active as β-O-Gln”.

In the case of CCCCCCCCCCCCCCCCOC[C@H](COC1O[C@H](CO)[C@@H](O)[C@H](O)[C@H]1N)OC (stereo partly drawn) [α-O-Gln, 1-O-Hexadecyl-2-O-methyl-3-O-(2′-amino-2′-deoxy-D-glucopyranosyl)-sn-glycerol], the loss of viability ([1]; 10 μM) is reported as 90%, the loss of viability ([1]; 20 or 30 μM) is reported as “Complete loss of viability” and the spheroid integrity [2] is reported as “complete disintegration of the spheroids”. For the same molecule, the spheroid formation (cancer stem cells) was “unable to form spheroids”, the “viability (trypan dye exclusion)” value (BT474 cancer stem cells) was “not viable” and the “cytotoxicity compared to β-O-Gln (β-AO1)” value (cancer cell lines) was “superior activity”. For the same molecule, the loss of viability ([3]; 10 μM) was “about 60%”, the loss of viability ([3]; 20 or 30 μM) was “total loss of viability” and the spheroid formation (BT-474 cancer stem cells) was “unable to form spheroids”. The “generation of large acidic vacuoles” value [4] was “generation of these vacuoles”.

In the case of CCCCCCCCCCCCCCCCOCC(CO[C@H]1O[C@H](CO)[C@@H](O)[C@H](O)[C@@H]1N)OC (stereo partly drawn) [α-O-Mann], the “Viability (% 0f control)” value ([3]; 10 μM) is reported as 134.3 % 0f control, the “Viability (% 0f control)” value ([3]; 20 μM) is reported as 58.84 % 0f control and the “Viability (% 0f control)” value ([3]; 30 μM, listed as α-Mann) is reported as 25.9 % 0f control. The “toxicity against the cancer stem cells” value [3] was “not as active as α-O-Galn”.

For CCCCCCCCCCCCCCCCOC[C@H](COC1O[C@H](CO)[C@H](O)[C@H](O)[C@H]1N)OC (stereo partly drawn) [α-O-Galn, 1-O-Hexadecyl-2-O-methyl-3-O-(2′-amino-2′-deoxy-D-galactopyranosyl)-sn-glycerol], the spheroid formation (cancer stem cells) was “unable to form spheroids”, the “Viability (% 0f control)” value ([3]; 10 μM) was “around 10 % 0f control” and the “Viability (% 0f control)” value ([3]; 10 μM, listed as α-Galn) was 9.64 % 0f control. The “Viability (% 0f control)” value ([3]; 20 μM, listed as α-Galn) was 0 % 0f control, the “Viability (% 0f control)” value ([3]; 30 μM, listed as α-Galn) was 0 % 0f control and the loss of viability ([3]; 20 or 30 μM) was “Complete loss of viability”. For the same molecule, the “toxicity against the cancer stem cells” value [3] was “quite toxic” and the “generation of large acidic vacuoles” value [4] was “generation of these vacuoles”.

With CCCCCCCCCCCCCCCCCCOCC(COP(=O)([O-])OCC[N+](C)(C)C)OC (stereo not shown) [ET-18-OCH3, 1-O-octadecyl-2-O-methyl-glycerophosphocholine, reference compound] the “viability, % of controls” value ([1]; 20 or 30 μM) was 30-40 % of controls, the cytotoxicity at 10 µM ([1]; Homo sapiens, JIMT-1, 144 h, 10 μM, read-out: loss of viability) was 40% and the viability at 30 µM ([3]; Homo sapiens, BT-474, 144 h, read-out: viability relative to controls) was ~45%.

In the case of CCCCCCCCCCCCCCCCOC[C@H](COC1O[C@H](CO)[C@H](O)[C@H](O)[C@H]1N)OC (stereo partly drawn) [β-O-Galn, 1-O-Hexadecyl-2-O-methyl-3-O-(2′-amino-2′-deoxy-D-galactopyranosyl)-sn-glycerol], the “Viability (% 0f control)” value ([3]; 10 μM, listed as β-Galn) is reported as 153.7 % 0f control, the “Viability (% 0f control)” value ([3]; 20 μM, listed as β-Galn) is reported as 48.0 % 0f control and the “Viability (% 0f control)” value ([3]; 30 μM, listed as β-Galn) is reported as 32.16 % 0f control. The “toxicity against the cancer stem cells” value [3] was “not as active as α-O-Galn”.
